Laboratory results from patent publication US7998460B2, “Prevention of deficits in neurogenesis with anti-inflammatory agents” (The Board of Trustees of the Leland Stanford Junior …, priority 2003, dated 2011).
“Also recorded” adds a separate entry of the source.

Columns and labels:
[1] = test system: hippocampal neurogenesis; experiment: LPS-induced systemic inflammation, hippocampal neurogenesis, one-week BrdU labeling paradigm; format: in vivo, rat
Procedure: To determine the effects of inflammation on adult hippocampal neurogenesis, bacterial lipopolysaccharide (LPS) was injected into adult female rats to induce systemic inflammation. The intraperitoneal administration of LPS causes a peripheral inflammatory cascade that is transduced to the brain via IL-1β from the cerebral vasculature and causes a strong upregulation of central pro-inflammatory cytokine production. Following LPS exposure, rats were treated systemically with bromo-deoxyuridine (BrdU) for 6 days to label proliferating cells within the hippocampus. Animals were then sacrificed on the 7th day. The fate of the BrdU-labeled, proliferative cells was analyzed with immuno-fluorescent staining and confocal microscopy.
Control animals were given either vehicle (5% bicarbonate) injections i.p. or plain dog food. To ensure complete consumption of food and medication in the 2 month paradigm, rats were restricted to 80% of their ad lib intake.
LPS exposure. Bacterial lipopolysaccharide (LPS, Sigma, St Louis, Mo.) was administered in sterile saline by intraperitoneal injection at a dose of 1 mg/Kg one time. This caused mild sickness behavior (decreased grooming, decreased locomotor activity, increased piloerection) for approximately 2 days, resolving by the 3rd day. The dose of LPS chosen causes mild sickness behavior in rats that resolves within 1-2 days; the dose of LPS used to induce endotoxic shock is 10-fold higher than that used in the present study.
Immunocytochemistry and immunofluorescent staining. Free floating sections were immunostained as previously described using the following primary antibodies and working concentrations: mouse anti-NeuN (1:4, gift from R. Mullen); guinea pig-anti GFAP (1:800, Harlan, Indianapolis, Ind.); mouse anti-type III βtubulin (Tuj-1, 1:500, Berkeley Antibody Co., Richmond, Calif.); rabbit anti-NG2 (1:200, Chemicon, Temecula, Calif.); mouse anti-rat CD11b (1:200, Serotec, Oxford, U.K.); mouse anti-ED-1 (1:100, Research Diagnostics Inc., Flanders, N.J.); biotinylated-Lycopersicon esculentum (tomato) lectin (1:200, Vector, Burlingame, Calif.).
Confocal microscopy. All confocal microscopy was performed using a Zeiss 510 confocal microscope. Appropriate gain and black level settings were determined on control tissues stained with secondary antibodies alone. Upper and lower thresholds were always set using the range indicator function to minimize data loss through saturation.
Cell counting and unbiased stereology. All counts were limited to the hippocampal granule cell layer proper and a 50 μm border along the hilar margin that included the neurogenic subgranule zone. The proportion of BrdU cells displaying a lineage-specific phenotype was determined by scoring the co-localization of cell phenotype markers with BrdU using confocal microscopy. Split panel and z-axis analysis were used for all counting. All counts were performed using multi-channel configuration with a 40× objective and electronic zoom of 2. When possible, 100 or more BrdU-positive cells were scored for each marker per animal. Each cell was manually examined in its full “z”-dimension and only those cells for which the nucleus was unambiguously associated with the lineage-specific marker were scored as positive. The total number of BrdU-labeled cells per hippocampal granule cell layer and subgranule zone was determined using diaminobenzadine stained tissues. In a separate series, the total number of ED1-labeled cells per dentate gyrus was also determined using diaminobenzadine stained tissue. Stained BrdU-positive nuclei or ED1-positive cells were scored under light microscopy using Microbrightfield Stereo Investigator software and the Fractionator method. Overestimation was corrected using the Abercrombie method for nuclei with empirically determined average diameter of 13 μm within a 40 μm section.

[2] = test system: C57BI/6 mice; experiment: Locomotor chambers and Morris water maze after LPS in mice; format: in vivo, mouse; settings: for effect of NSAID on LPS-induced impairment of probe trial performance: oral NSAID course, training from Day 28
Procedure: Behavioral testing. Locomotor activity was measured in 17×17 inch chambers lined with three 16-beam infrared arrays in photocell boxes (MED Associates, Inc., St. Albans, Vt.). The mice were placed into the chambers and their locomotor activity was recorded for 20 minutes 4 days after LPS was injected (on Day 4). A 50 msec scanning rate was used for measuring beams broken. Distance traveled was analyzed for estimates of locomotion based on the movement of a given distance and resting delay (movement in a given period) using Open Field Activity software (MED Associates, Inc., St. Albans, Vt.).
Hippocampus-dependent learning and memory was assessed in the standard Morris water maze task. All hippocampus-dependent training and testing was conducted in a black circular tank (170 cm diameter×43 cm height) filled water made opaque using white non-toxic Tempra paint (Rich Art Color Co. Inc, Northvale, Calif.; training and testing). A platform (13 cm diameter×28.5 cm height) was hidden 1 cm below the water surface for platform shaping and training trials. Time and distance traveled in the pool was recorded using Videotrack Automated Behavioral Analysis System (Viewpoint Life Sciences Inc., Otterburn Park, Quebec).
Platform shaping began three days before platform training (Days 25-27). In the absence of extra-maze cues, mice were released from random points in the pool (filled with clearwater) near the platform and gently guided to the platform. Shaping trials continued until the mouse remained on the platform for 15 s over 3 consecutive trials on each of the three sessions.
[…] In the presence of extra-maze cues, the mice were released from the middle of the east, south, or west quadrant, facing the pool wall, and were given 120 s to find the platform hidden beneath opaque water in the center of the north quadrant. […] Sessions of 6 training trials (inter-trial interval of approximately 30 min) were conducted daily until all the mice located the platform in an average of 15 s or less within a session. […] Pathlength and latency were analyzed as measures of learning, swim speed was analyzed as a measure of sensorimotor ability and % time spent in outer annulus was analyzed as a measure of anxiety.
Probe Trial Testing was conducted at 1 week after mice reached criterion in the platform training phase of the experiment. The room setup was identical for platform training and probe trials, with the exception that the platform was removed from the pool during probe trials. The mice were given a single trial in which they were released from the center of the pool and then after 3 minutes were removed from the location that held the platform during training trials. Percent time and distance spent in each quadrant were analyzed as measures of memory, swim speed and total distance swum were analyzed as measures of sensorimotor ability and % time and distance spent in the outer annulus were analyzed as measures of anxiety. After the last probe trial, we ran four daily sessions of reversal trials (4 trials per session) in which mice were given 120 s to locate the platform hidden beneath opaque water in the south quadrant to better interpret whether probe trial performance was indicative of memory or perseveration. […] A visible platform session (2 trials) was administered after the final reversal trial to further test sensorimotor ability. Reversal and visible platform trial performance was scored identically to platform training performance.

[3] = LPS 1 mg/Kg i.p. once, sacrifice on 7th day
[4] = indomethacin 2.5 mg/kg i.p. twice each day with LPS

| Compound | decrease in hippocampal neurogenesis (proportion of non-microglial BrdU+ cells co-expressing Dcx) [1, 3] [%] | increase in the density of activated microglia (CD68/ED1-positive) in the dentate gyrus [1, 3] [%] | total distance explored and duration spent exploring a novel chamber vs vehicle ([2]; LPS 5 mg/kg, Day 4) | learning and remembering hidden platform position vs control, acute phase recovery ([2]; LPS 5 mg/kg, training from Day 7) | probe trial time in platform quadrant vs control ([2]; training commenced 4 weeks after LPS) | effect on density of activated microglia (ED1+) after LPS [1, 4] | effect on distance from BrdU+ nucleus to nearest vessel after LPS [1, 4] | effect on LPS-induced inhibition of neurogenesis ([1]; indomethacin 2.5 mg/kg i.p. twice each day, concurrently with LPS) | effect on neurogenesis in control animals (drug alone) ([1]; indomethacin 2.5 mg/kg i.p. twice each day, no LPS) | effect of NSAID on LPS-induced impairment of probe trial performance ([2]; LPS 5 mg/kg) | effect of NSAID on LPS-induced impairment of probe trial performance ([2]; LPS 5 mg/kg, listed as Indomethacin) |
| --- | --- | --- | --- | --- | --- | --- | --- | --- | --- | --- | --- |
| lipopolysaccharide [LPS] | 35 | 240 | significantly smaller | equally efficient | significantly smaller amount of time; also recorded: significantly less time | – | – | – | – | – | – |
| COc1ccc2c(c1)c(CC(=O)O)c(C)n2C(=O)c1ccc(Cl)cc1 [indomethacin] | – | – | – | – | – | decreases this inflammatory response | restores the vascular association | completely blocked; also recorded: restores neurogenesis | no effect | partially attenuated | reversed the effects of LPS on probe trial performance |
